We go through two molecules from paper PMC7376718, “Flavonoids isolated from the South African weed Chromolaena odorata (Asteraceae) have pharmacological activity against uropathogens” (BMC Complementary Medicine and Therapies, 2020).

Broadly, the MIC is the smallest concentration in the dilution series that meets the test's criterion for growth inhibition. Low values mean inhibition by little substance, high ones a need for much substance.

Converted amounts (≈) assume the structure as drawn.

Data set [1] relates to C. neoformans and A. fumigatus. The data set is described as follows: Mean MIC over the fungal isolates. It counts as cell-based. The conditions noted are these: all time points of Table 3. From the text:
The cultures used were Escherichia coli (American Type Culture Collection, ATCC 25922) labelled as 1, E. coli isolates (B1989/17 and B1962/17) labelled as 2 and 3 from equine urine, collected from the Department of Veterinary Tropical Diseases, Faculty of Veterinary Science, University of Pretoria, South Africa, Klebsiella pneumoniae isolate from commercial chicken eggs, Enterococcus faecalis (ATCC 29212), Pseudomonas aeruginosa (ATCC 27853), Staphylococcus aureus (ATCC 29213), Candida albicans from a Gouldian finch, Aspergillus fumigatus from a chicken and Cryptococcus neoformans from a cheetah. These microbial strains were maintained on MHA or SDA for bacteria and fungi respectively, while the isolates were maintained on blood agar.
Ten mg/mL of each fraction and 1 mg/mL of isolated compounds were prepared in 10% DMSO and tested against S. aureus, E. coli, K. pneumoniae, E. faecalis, P. aeruginosa, C. albicans, C. neoformans and A. fumigatus. Cultures were prepared by inoculating each microbial strain from prepared agar plates into sterilized MHB for bacterial and SDB for fungi in sterile McCartney bottles respectively. The inoculums were placed in an orbital shaker incubator. Bacterial strains were incubated at 37 °C for 18 h. Each bacterial culture was diluted in fresh MHB and the absorbance was measured at a wavelength of 560 nm using a microplate reader (Epoch Biotek). The readings were compared to a McFarland standard No. 1 correlating to approximately 3 × 10^8 cfu/mL). For fungi strains, cultures were incubated at 30 °C for 24 h (C. albicans), 72 h (C. neoformans) and 120 h (A. fumigatus) respectively. The resultant cells and spores were washed with sterile normal saline and absorbance was measured at a wavelength of 560 nm and turbidity was adjusted to a McFarland standard 1.This was further diluted in a 1:10 ratio in SDB to a turbidity of 5 × 10^5 cfu/mL. These diluted cultures (bacterial and fungi) were used for the screening following the serial microdilution method of Eloff.

The nature of a further data set: in vitro. On the procedure:
(§1) Different concentrations of the compounds ranging from 0.003 to 0.2 mg/mL were tested for cytotoxicity against three cell lines; Vero monkey kidney, C3A and Caco2. Vero cells were grown and maintained in MEM, supplemented with 0.1% gentamicin and 5% foetal calf serum, while Caco2 and C3A cells were grown and maintained in DMEM supplemented with 10% foetal calf serum, 1% non-essential amino acids and 1% penicillin-streptomycin. All cells were incubated in a 5% CO2 incubator at 37 °C. Doxorubicin chloride was used as positive control while 10% DMSO used in dissolving the test samples was used as the negative control. The 3-(4,5-dimethylthiazol)-2,5-diphenyl tetrazolium bromide (MTT) assay described by Mosmann with modification by McGaw et al. was used to determine the cytotoxicity of the test samples. The lethal concentration (LC50) value was calculated as the concentration of tested sample resulting in a 50% reduction of absorbance compared to untreated cells. Selectivity index (SI) values were calculated against the MIC using the formula: […]

In a further data set the test system is Caco2 cells. The data set is described as follows: in vitro. The conditions noted are these: Caco2. On the procedure: as §1
The next data set has as its system S. aureus. Also on record: method as in earlier work. The note with it: ref [70] Teffo et al.; cited from earlier work.

For `COc1ccc(C2CC(=O)c3c(OC)cc(OC)cc3O2)cc1` (racemic) [Compound 2, (±)-4′,5,7-trimethoxy flavanone], in data set [1], the MIC was 70 ± 60 mg/L (≈ 223 µM) and the “Mean MIC” value came to 70 mg/L. Also, the CC50 in “in vitro” is above 200 mg/L.

As to `COc1ccc(-c2oc3cc(OC)cc(O)c3c(=O)c2OC)cc1` [Compound 3, 5-hydroxy-3,7,4′-trimethoxyflavone], the “Selectivity index (LC50/MIC)” value in the data set on Caco2 cells (A. fumigatus 48 h) is recorded as 5.129; with Caco2 cells (E. coli (1)), 2.52; in the data set on Caco2 cells (E. coli (2)), 0.636; with Caco2 cells (E. coli (3)), 0.636; in the data set with Caco2 cells (K. pneumoniae), 1.272; in the data set with Caco2 cells (S. aureus), 9.938. In the data set with S. aureus, the “MIC / antibacterial activity” value is reported as “no activity was recorded”.
